Values quoted from earlier work in patent US11999963B2, “Pseudomonas protegens and products thereof to control bacterial panicle blight of rice” (priority 2020, dated 2024).

Test system: Pythium ultimum
Conditions: Howell & Stipanovic, 1980; Maurhofer et al., 1994

For `O=C(c1cc(Cl)c(Cl)[nH]1)c1c(O)cccc1O` [Pyoluteorin, pyoluteorin], the “activity against Pythium ultimum” value is listed as “had activity”.
